# Measured values as given in US20250108038A1 (priority 2023, published 2025).
# “And” between values parts separate entries of the source, which are not always exact repeats. Equal entries are not always repeated.
# Legend:
# [1] = Pharmacokinetics after single oral administration to beagle dogs; type: in vivo; conditions: for plasma concentration of Compound I-17/I-19 (as titled): single PO 80 mg/kg (as titled)
# Protocol: The concentrations of the analytes in the plasma were quantified by liquid chromatography tandem mass spectrometry (LC-MS/MS).
# The bioanalytical assay provided a lower limit of quantification (LLOQ) of 1.0 ng/mL and an upper limit of quantification (ULOQ) of 3000 ng/mL for all the analytes. The data of plasma concentration vs. time were analyzed using Phoenix WinNonlin 8.3 to determine the PK properties of the analytes.
# The test articles were administered orally by gavage. The nominal dose volume was 5 mL/kg for both analogs.
# The observation included appearance, behavior, morbidity and mortality.
# Approximately 0.5 mL blood was collected at each scheduled time point from the peripheral veins.
# The plasma samples were placed in microcentrifuge tubes and stored at −70+10° C. until analysis.
# [2] = molecular target: BSEP (Homo sapiens, UniProt O95342); test: Vesicular transport inhibition assay, BSEP (taurocholate)
# Protocol: Vesicular transport assays were performed with inside-out membrane vesicles prepared from cells overexpressing human ABC (efflux) transporters. The transporters were expressed by SOLVO Biotechnology in mammalian (HEK293) cells. The mammalian cells were stably transfected with the ABC transporter of interest. The assays were conducted according to the actual SOLVO VT assay protocols (PR-ASY-VT-General Protocol for Vesicular Transport Inhibition Assays).
# The membrane vesicle suspension was mixed with the ice-cold transport buffer, then the probe substrate solution was added. […] (for BCRP and MDR1). […] Reactions were quenched by the addition of 200 μL of ice-cold washing buffer and immediate filtration via glass fiber filters mounted to a 96-well plate (filter plate). The filters were washed (5×200 μL of ice-cold washing buffer), dried and the amount of substrate inside the filtered vesicles was determined by liquid scintillation counting.
# Incubation with AMP provided background activity values for all data points.
# [3] = 0.14 μM nominal, follow-up assay
# [4] = 1.24 μM nominal, follow-up assay
# [5] = 11.11 μM nominal, follow-up assay
# [6] = 33.33 μM nominal, follow-up assay
# [7] = 100.00 μM nominal, follow-up assay
# BSEP, sequence (O95342 whole entry): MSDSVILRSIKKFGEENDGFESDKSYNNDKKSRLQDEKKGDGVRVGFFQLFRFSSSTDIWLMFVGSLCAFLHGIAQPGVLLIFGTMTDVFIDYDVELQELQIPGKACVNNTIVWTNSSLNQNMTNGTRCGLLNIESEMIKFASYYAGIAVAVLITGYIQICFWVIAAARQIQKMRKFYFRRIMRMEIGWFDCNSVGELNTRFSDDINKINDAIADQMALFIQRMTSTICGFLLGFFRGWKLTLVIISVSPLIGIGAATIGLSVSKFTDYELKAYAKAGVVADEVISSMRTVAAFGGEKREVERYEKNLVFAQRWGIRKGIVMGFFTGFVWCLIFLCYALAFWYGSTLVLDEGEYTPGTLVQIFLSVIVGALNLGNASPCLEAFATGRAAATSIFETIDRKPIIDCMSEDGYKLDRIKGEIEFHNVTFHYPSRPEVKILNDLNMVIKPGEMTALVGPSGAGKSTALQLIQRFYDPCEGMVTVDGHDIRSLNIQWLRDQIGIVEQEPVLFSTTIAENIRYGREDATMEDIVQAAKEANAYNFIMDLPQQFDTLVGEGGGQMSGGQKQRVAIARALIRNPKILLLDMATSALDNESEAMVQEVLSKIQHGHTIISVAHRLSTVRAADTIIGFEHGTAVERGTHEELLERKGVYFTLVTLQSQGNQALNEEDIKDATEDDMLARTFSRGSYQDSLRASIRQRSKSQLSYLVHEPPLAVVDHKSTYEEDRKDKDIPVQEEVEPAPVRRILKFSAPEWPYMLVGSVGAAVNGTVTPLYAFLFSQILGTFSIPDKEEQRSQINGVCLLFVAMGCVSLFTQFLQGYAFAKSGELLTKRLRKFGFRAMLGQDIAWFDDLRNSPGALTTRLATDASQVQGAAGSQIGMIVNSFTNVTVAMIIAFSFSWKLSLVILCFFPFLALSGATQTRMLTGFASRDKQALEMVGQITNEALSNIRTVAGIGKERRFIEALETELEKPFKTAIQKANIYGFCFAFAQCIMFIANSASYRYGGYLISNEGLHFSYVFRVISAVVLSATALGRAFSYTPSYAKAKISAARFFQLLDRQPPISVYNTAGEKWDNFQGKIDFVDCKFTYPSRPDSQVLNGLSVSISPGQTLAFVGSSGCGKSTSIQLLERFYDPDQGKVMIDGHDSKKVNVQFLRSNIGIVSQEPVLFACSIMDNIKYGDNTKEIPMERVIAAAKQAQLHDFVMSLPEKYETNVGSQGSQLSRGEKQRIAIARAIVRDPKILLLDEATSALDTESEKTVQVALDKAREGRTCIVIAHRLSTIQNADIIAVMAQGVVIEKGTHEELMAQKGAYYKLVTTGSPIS
compound,measurement,setting,value
Clc1ccc(C2(OCC3OCCO3)c3ccccc3C3=NCCN32)cc1 (stereo not drawn) [Compound I-19],plasma concentration of Compound I-17/I-19,"[1]; single PO 10 mg/kg, 0.500 h, male mean",0.227 µg/mL
same,plasma concentration of Compound I-17/I-19,"[1]; single PO 10 mg/kg, 1.00 h, female individual, 10 mg/kg",0.258 µg/mL and 0.262 µg/mL
same,plasma concentration of Compound I-17/I-19,"[1]; single PO 10 mg/kg, 1.00 h, female mean",0.26 µg/mL
same,plasma concentration of Compound I-17/I-19,"[1]; single PO 10 mg/kg, 1.00 h, male individual, 10 mg/kg",0.312 µg/mL and 0.281 µg/mL
same,plasma concentration of Compound I-17/I-19,"[1]; single PO 10 mg/kg, 1.00 h, male mean",0.297 µg/mL
same,plasma concentration of Compound I-17/I-19,"[1]; single PO 10 mg/kg, 2.00 h, female individual, 10 mg/kg",0.186 µg/mL and 0.24 µg/mL
same,plasma concentration of Compound I-17/I-19,"[1]; single PO 10 mg/kg, 2.00 h, female mean",0.213 µg/mL
same,plasma concentration of Compound I-17/I-19,"[1]; single PO 10 mg/kg, 2.00 h, male individual",0.181 µg/mL
same,plasma concentration of Compound I-17/I-19,"[1]; single PO 10 mg/kg, 2.00 h, male mean",0.181 µg/mL
same,plasma concentration of Compound I-17/I-19,"[1]; single PO 10 mg/kg, 4.00 h, female individual, 10 mg/kg",0.0507 µg/mL and 0.0782 µg/mL
same,plasma concentration of Compound I-17/I-19,"[1]; single PO 10 mg/kg, 4.00 h, female mean",0.0644 µg/mL
same,plasma concentration of Compound I-17/I-19,"[1]; single PO 10 mg/kg, 4.00 h, male individual, 10 mg/kg",0.0642 µg/mL and 0.0677 µg/mL
same,plasma concentration of Compound I-17/I-19,"[1]; single PO 10 mg/kg, 4.00 h, male mean",0.066 µg/mL
same,plasma concentration of Compound I-17/I-19,"[1]; single PO 10 mg/kg, 6.00 h, female individual, 10 mg/kg",0.0278 µg/mL and 0.0505 µg/mL
same,plasma concentration of Compound I-17/I-19,"[1]; single PO 10 mg/kg, 6.00 h, female mean",0.0391 µg/mL
same,plasma concentration of Compound I-17/I-19,"[1]; single PO 10 mg/kg, 6.00 h, male individual, 10 mg/kg",0.0273 µg/mL and 0.0227 µg/mL
same,plasma concentration of Compound I-17/I-19,"[1]; single PO 10 mg/kg, 6.00 h, male mean",0.025 µg/mL
same,plasma concentration of Compound I-17/I-19,"[1]; single PO 10 mg/kg, 8.00 h, female individual, 10 mg/kg",0.0146 µg/mL and 0.0287 µg/mL
same,plasma concentration of Compound I-17/I-19,"[1]; single PO 10 mg/kg, 8.00 h, female mean",0.0217 µg/mL
same,plasma concentration of Compound I-17/I-19,"[1]; single PO 10 mg/kg, 8.00 h, male individual, 10 mg/kg",0.0152 µg/mL and 0.00916 µg/mL
same,plasma concentration of Compound I-17/I-19,"[1]; single PO 10 mg/kg, 8.00 h, male mean",0.0122 µg/mL
same,plasma concentration of Compound I-17/I-19,"[1]; single PO 10 mg/kg, 24.0 h, female individual",BQL
same,plasma concentration of Compound I-17/I-19,"[1]; single PO 10 mg/kg, 24.0 h, male individual",BQL
same,Clinical observation,"[1]; single PO 10 mg/kg, beagle dogs",diarrhea at 24 hours post-dose
same,plasma concentration of Compound I-17/I-19 (as titled),"[1]; 0.500 h, female individual, 80 mg/kg",0.16 µg/mL and 0.083 µg/mL
same,plasma concentration of Compound I-17/I-19 (as titled),"[1]; 0.500 h, female mean",0.121 µg/mL
same,plasma concentration of Compound I-17/I-19 (as titled),"[1]; 0.500 h, male individual, 80 mg/kg",0.102 µg/mL and 0.0916 µg/mL
same,plasma concentration of Compound I-17/I-19 (as titled),"[1]; 0.500 h, male mean",0.0968 µg/mL
same,plasma concentration of Compound I-17/I-19 (as titled),"[1]; 2.00 h, female individual",0.113 µg/mL
same,plasma concentration of Compound I-17/I-19 (as titled),"[1]; 2.00 h, female mean",0.113 µg/mL
same,plasma concentration of Compound I-17/I-19 (as titled),"[1]; 2.00 h, male individual, 80 mg/kg",0.0949 µg/mL and 0.0789 µg/mL
same,plasma concentration of Compound I-17/I-19 (as titled),"[1]; 2.00 h, male mean",0.0869 µg/mL
same,plasma concentration of Compound I-17/I-19 (as titled),"[1]; 4.00 h, female individual, 80 mg/kg",0.0873 µg/mL and 0.0761 µg/mL
same,plasma concentration of Compound I-17/I-19 (as titled),"[1]; 4.00 h, female mean",0.0817 µg/mL
same,plasma concentration of Compound I-17/I-19 (as titled),"[1]; 4.00 h, male individual, 80 mg/kg",0.0874 µg/mL and 0.0603 µg/mL
same,plasma concentration of Compound I-17/I-19 (as titled),"[1]; 4.00 h, male mean",0.0738 µg/mL
same,plasma concentration of Compound I-17/I-19 (as titled),"[1]; 6.00 h, female individual, 80 mg/kg",0.0491 µg/mL and 0.0579 µg/mL
same,plasma concentration of Compound I-17/I-19 (as titled),"[1]; 6.00 h, female mean",0.0535 µg/mL
same,plasma concentration of Compound I-17/I-19 (as titled),"[1]; 6.00 h, male individual, 80 mg/kg",0.0604 µg/mL and 0.0354 µg/mL
same,plasma concentration of Compound I-17/I-19 (as titled),"[1]; 6.00 h, male mean",0.0479 µg/mL
same,plasma concentration of Compound I-17/I-19 (as titled),"[1]; 8.00 h, female individual, 80 mg/kg",0.0325 µg/mL and 0.052 µg/mL
same,plasma concentration of Compound I-17/I-19 (as titled),"[1]; 8.00 h, female mean",0.0423 µg/mL
same,plasma concentration of Compound I-17/I-19 (as titled),"[1]; 8.00 h, male individual, 80 mg/kg",0.0438 µg/mL and 0.0209 µg/mL
same,plasma concentration of Compound I-17/I-19 (as titled),"[1]; 8.00 h, male mean",0.0324 µg/mL
same,plasma concentration of Compound I-17/I-19 (as titled),"[1]; 24.0 h, female individual, 80 mg/kg",0.0067 µg/mL and 0.0182 µg/mL
same,plasma concentration of Compound I-17/I-19 (as titled),"[1]; 24.0 h, female mean",0.0124 µg/mL
same,plasma concentration of Compound I-17/I-19 (as titled),"[1]; 24.0 h, male individual, 80 mg/kg",0.00739 µg/mL and 0.00428 µg/mL
same,plasma concentration of Compound I-17/I-19 (as titled),"[1]; 24.0 h, male mean",0.00583 µg/mL
same,plasma concentration of Compound I-17/I-19 (as titled),"[1]; […] h, female mean",0.116 µg/mL
same,plasma concentration of Compound I-17/I-19 (as titled),"[1]; […] h, male mean",0.123 µg/mL
same,ATP-dependent transport,[2]; [3],"5,664.33 ± 228.93 cpm"
same,Relative ATP-dependent transport,[2]; [3],114.35 ± 6.07 % of control
same,Relative inhibition,[2]; [3],−14%
same,ATP-dependent transport,[2]; [4],"4,919.33 ± 50.10 cpm"
same,Relative ATP-dependent transport,[2]; [4],99.31 ± 4.70 % of control
same,Relative inhibition,[2]; [4],1%
same,ATP-dependent transport,[2]; 10.00 μM nominal,"4,410.33 ± 297.54 cpm"
same,Relative ATP-dependent transport,[2]; 10.00 μM nominal,90.09 ± 6.36 % of control
same,Relative inhibition,[2]; 10.00 μM nominal,10%
same,ATP-dependent transport,[2]; [5],"4,442.00 ± 98.02 cpm"
same,Relative ATP-dependent transport,[2]; [5],89.68 ± 4.59 % of control
same,Relative inhibition,[2]; [5],10%
same,ATP-dependent transport,[2]; [6],"3,105.00 ± 99.98 cpm"
same,Relative ATP-dependent transport,[2]; [6],62.69 ± 3.53 % of control
same,Relative inhibition,[2]; [6],37%
same,ATP-dependent transport,[2]; 100.00 μM nominal,"1,103.00 ± 205.45 cpm"
same,Relative ATP-dependent transport,[2]; 100.00 μM nominal,22.53 ± 4.22 % of control
same,Relative inhibition,[2]; 100.00 μM nominal,77%
same,ATP-dependent transport,[2]; [7],"1,333.33 ± 146.13 cpm"
same,Relative ATP-dependent transport,[2]; [7],26.92 ± 3.20 % of control
same,Relative inhibition,[2]; [7],73%
same,maximum inhibition of BSEP-mediated taurocholate accumulation,"[2]; 2-concentration assay, up to 100 μM (Compound A up to 35 μM)",77%
same,Maximum % inhibition,"[2]; BSEP, inside-out membrane vesicles, TC (0.2 μM), NIO: No inhibition observed",73%
same,maximum inhibition of BSEP-mediated taurocholate accumulation,[2]; follow-up assay,73%
same,IC50,"[2]; follow-up assay, bottom constrained to 0",45.3 µM
